The results in this text go back to article PMC11436758, “Computer-aided drug design to generate a unique antibiotic family” (Nature Communications, 2024).

The test system of one assay is MRSA (ATCC 33591). Kind of assay: MIC, CLSI broth microdilution. Format: cell-based, S. aureus. The settings on record: three individual replicates. How it is done:
The medium employed for the assay was Mueller Hinton II Broth (MHB II; Becton-Dickinson, Sparks, MD, USA). Agar plates used for the organisms were trypticase soy agar plus 5% sheep blood (BD; Sparks, MD, USA). MIC assay plates were prepared using the CLSI broth microdilution procedure. Automated liquid handlers (Multidrop 384, Biomek 2000 and Biomek FX) were used to conduct serial dilutions and liquid transfers. A standardized inoculum of each organism was prepared per CLSI methods. Suspensions were prepared to equal a 0.5 McFarland standard, followed by a 1:20 dilution in test media. The inocula were dispensed into sterile reservoirs divided by length (Beckman Colter) and the Biomek 2000 was used to inoculate the plates. Daughter plates were placed on the Biomek 2000 work surface in reverse orientation so that inoculation took place from low to high drug concentration. The Biomek 2000 delivered 10 μL of the diluted suspension into each well. These inoculations yielded a final cell concentration in the daughter plates of ~5 × 10^5 colony-forming units/mL in each well. The wells of the daughter plates ultimately contained 185 μL of broth, 5 μL of drug solution, and 10 μL of bacterial inoculum. Plates were covered with a sterile lid on the top plate, placed in plastic bags, and incubated at 35 °C for ~18 h. The microplates were viewed from the bottom using a plate viewer and the MIC was read. The MIC was recorded as the lowest concentration of drug that inhibited visible growth of the organism. Uninoculated solubility control plates were also observed for evidence of drug precipitation.
(In broth dilution the organism is exposed to a series of concentrations in liquid medium.)

The next assay has as its target AcpS (Escherichia coli, UniProt P24224). Nature of the assay: AcpS enzyme activity inhibition (IC50) by DNM compounds, [3H]acetyl-CoA / apo-ACP assay. The settings on record: three individual replicates. Format: biochemical. An excerpt: The acpP gene encoding ACP was amplified from E. coli genomic DNA and subcloned into the pGEX4T-1 vector. This construct drives the expression of glutathione S-transferase (GST) fused to the ACP open reading frame through a linker containing a consensus sequence for thrombin cleavage. The identity and veracity of acpP was verified by DNA sequencing. BL21 E. coli cells expressing GST-ACP were suspended in ice-cold phosphate buffer saline (PBS) and lysed by sonication. The lysate was made 1% Triton X-100 and rested on ice for 30 min with occasional mixing. A clear supernatant was isolated by centrifugation at 46,000 × g for 30 min, brought to 10 mM MgCl2 and 2 mM MnCl2 and incubated at room temperature for 1 h with occasional mixing. The supplementation of the lysate to 10 mM MgCl2 and 2 mM MnCl2 favors the activity of endogenous ACP phosphodiesterase (acpH) enriching the apo- fraction of GST-ACP. GST-ACP was affinity purified upon binding to glutathione-sepharose. The ACP moiety was eluted from the affinity resin by in-column thrombin digestion. Apo-ACP was separated from holo-ACP and acylated forms of ACP by ion-exchange chromatography on a Mono-Q 5/50 GL at pH 6.1 operated from an AKTA Pure 25 platform. The purity of the apo-ACP preparation was assessed by 20% PAGE on native gels containing 0.5 M urea.
The acpS gene was amplified from S. aureus and E. coli genomic DNA and inserted into a pET23b vector using standard recombinant DNA methodology such that the protein product would result in addition of a C-terminal 6x-His tag in frame with the AcpS open reading frames. The DNA sequences inserted in the vector were sequenced and found to be identical to the known E. coli and S. aureus acpS open reading frames. Recombinant His-Tagged AcpS expression was induced by IPTG addition and overnight culture. Cell lysate was obtained by sequential aspiration through 16, 18 and 21 G needles in a buffer of 50 mM Tris-HCl (pH 8.5), 10 mM MgCl2, 2 mM DTT, 5% glycerol, and further adjusted to pH 8.1 with MES. […] In a typical AcpS enzyme activity assay, 57 µM [^3H]acetyl-CoA, 2 µg apo-ACP, 10 mM MgCl2, 5 mM DTT, 50 mM Na phosphate (pH 7.0), and AcpS in a final volume of 10 µL were incubated at room temperature in a 1.5 mL microcentrifuge tube. At 5, 10, 15, and 20 min 2 µL of reaction were added to 750 µl 10% TCA on ice. Bovine serum albumin (BSA; 20 µl of a 25 mg/mL solution) was then added to facilitate precipitation of radiolabeled protein. The samples were centrifuged at 12,000 × g for 5 min. Supernatants were removed, and the pellets were rinsed twice with 750 µl of 10% trichloroacetic acid. Pellets were resuspended in 50 µl of formic acid and transferred to scintillation vials. 2 mL of scintillation fluid was added, and the amount of [^3H]-labeled holo-ACP formed was quantified by liquid scintillation counting. The enzymatic reaction proceeded in a linear manner depending on time (10–40 min) and enzyme concentration (1–5 nM). Routinely, each data point was determined at least by triplicate.

Values after ≈ are worked out from the molar mass of the structure shown.

Chain of AcpS (P24224 2-126): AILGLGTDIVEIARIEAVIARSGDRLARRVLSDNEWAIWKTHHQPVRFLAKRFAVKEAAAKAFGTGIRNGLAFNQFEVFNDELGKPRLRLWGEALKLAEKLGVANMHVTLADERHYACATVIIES

Take `Cc1ccc(-c2cc(-c3ccc(Cl)cc3)cc(-c3nnn[nH]3)c2)c2ccccc12` [DNM0480]: in the assay with MRSA (ATCC 33591), the MIC turned out to be 2 µg/mL (≈ 5.04 µM). The compound also yielded an IC50 at AcpS of 8 µM. In turn, `Clc1ccc(-c2cc(-c3nnn[nH]3)c(-c3ccc(Cl)cc3)s2)cc1` [DNM0213] gave an MIC against MRSA (ATCC 33591) of 2 µg/mL (≈ 5.36 µM). Take `CCCCc1cccc(-c2cc(-c3nnn[nH]3)sc2Cc2ccccc2)c1` [DNM0626]: the MIC in the assay with MRSA (ATCC 33591) was 0.5 µg/mL (≈ 1.34 µM). On AcpS, this compound gave an IC50 of 9 µM.

For `Clc1ccc(-c2sc(-c3ccccc3-c3ccccc3)cc2-c2nnn[nH]2)cc1` [DNM0466], the lowest concentration to inhibit growth in the assay with MRSA (ATCC 33591) (MIC) was 1 µg/mL (≈ 2.41 µM). Moreover, at AcpS, the IC50 turned out to be 9 µM.

Compound `c1ccc(-c2cc(-c3nnn[nH]3)sc2-c2ccccc2-c2ccsc2)c(-c2ccsc2)c1` [DNM0559] returned an MIC against MRSA (ATCC 33591) of 1 µg/mL (≈ 2.13 µM). Half-maximal inhibition on AcpS (IC50) required 9 µM. As for `Clc1ccc(Cc2sc(-c3nnn[nH]3)cc2-c2cccc(CC3CCCC3)c2)cc1` [DNM0610], in the assay with MRSA (ATCC 33591), the MIC was 1 µg/mL (≈ 2.3 µM). On AcpS, this compound gave an IC50 of 9 µM. The matching figures for `Cc1ccc(-c2ccccc2-c2cc(-c3nnn[nH]3)c(-c3ccccc3-c3ccc(C)c(C)c3)s2)cc1C` [DNM0495]: 2 µg/mL (≈ 3.9 µM) and 10 µM. On to `Clc1ccc(-c2cc(-c3nnn[nH]3)cc(-c3ccccc3-c3ccccc3)c2)cc1` [DNM0479], for which the MIC in the assay on MRSA (ATCC 33591) stood at 1 µg/mL (≈ 2.45 µM). For the same compound, half-maximal inhibition against AcpS (IC50) was put at 9 µM. Compound `Clc1cccc(-c2ccccc2-c2cc(-c3nnn[nH]3)cc(-c3ccccc3-c3cccc(Cl)c3)c2)c1` [DNM0493] registered an MIC against MRSA (ATCC 33591) of 2 µg/mL (≈ 3.85 µM). The compound also came in with an IC50 at AcpS of 14 µM.

As to `c1ccc(-c2ccccc2-c2cc(-c3nnn[nH]3)cc(-c3ccccc3-c3ccccc3)c2)cc1` [DNM0464], the MIC with MRSA (ATCC 33591) worked out at 0.5 µg/mL (≈ 1.11 µM). On AcpS, this compound returned an IC50 of 9 µM. The matching figures for `Cc1ccc(-c2sc(-c3ccc(Cl)cc3)cc2-c2nnn[nH]2)c2ccccc12` [DNM0473]: 2 µg/mL (≈ 4.96 µM) and 10 µM.

For the compound `Cc1ccc(-c2cc(-c3nnn[nH]3)cc(-c3ccc(C)c4ccccc34)c2)c2ccccc12` [DNM0461], the MIC in the assay with MRSA (ATCC 33591) stood at 0.5 µg/mL (≈ 1.17 µM). With `Cc1ccc(-c2sc(-c3ccccc3-c3ccccc3)cc2-c2nnn[nH]2)c2ccccc12` [DNM0472], inhibition of growth against MRSA (ATCC 33591) (MIC) required 2 µg/mL (≈ 4.5 µM). The compound further gave an IC50 against AcpS of 10 µM.

`Cc1cc(Cl)ccc1-c1cc(-c2nnn[nH]2)sc1-c1ccc(Cl)cc1C` [DNM0488]: the MIC against MRSA (ATCC 33591) worked out at 2 µg/mL (≈ 4.98 µM). This compound also registered an IC50 on AcpS of 9 µM. The matching figures for `c1ccc2c(c1)oc1c(-c3cc(-c4nnn[nH]4)sc3-c3cccc4c3oc3ccccc34)cccc12` [DNM0542]: 1 µg/mL (≈ 2.06 µM) and 12 µM. Regarding `CCCCc1cccc(-c2sc(-c3nnn[nH]3)c(C)c2-c2cccc(CCCC)c2)c1` [DNM0627], the MIC with MRSA (ATCC 33591) stood at 0.25 µg/mL (≈ 0.581 µM). Besides, on AcpS, inhibition was half-maximal at 10 µM (IC50).

Compound `Cc1ccc(-c2cc(-c3nnn[nH]3)c(-c3ccccc3-c3ccccc3)s2)c2ccccc12` [DNM0478] gave an MIC against MRSA (ATCC 33591) of 1 µg/mL (≈ 2.25 µM). The IC50 at AcpS is 8 µM.

On to `CC(C)c1cc(Cl)ccc1-c1cc(-c2nnn[nH]2)sc1-c1ccc(Cl)cc1C(C)C` [DNM0548], for which the MIC in the assay with MRSA (ATCC 33591) amounted to 2 µg/mL (≈ 4.37 µM). Moreover, at AcpS, the IC50 is 8 µM.

Compound `c1ccc(-c2ccccc2-c2cc(-c3nnn[nH]3)sc2-c2ccccc2-c2ccccc2)cc1` [DNM0489] showed an MIC in the assay with MRSA (ATCC 33591) of 2 µg/mL (≈ 4.38 µM). Half-maximal inhibition against AcpS (IC50) required 10 µM.

In the assay with MRSA (ATCC 33591), `Cc1ccc(-c2cc(-c3nnn[nH]3)sc2[C@@H]2CCCc3ccccc32)c2ccccc12` [DNM0636] registered an MIC of 2 µg/mL (≈ 4.73 µM). 13 µM corresponded to half-maximal inhibition at AcpS (IC50). In turn, `CC(C)c1cc(Cl)ccc1-c1cc(C(=O)O)sc1-c1ccc(Cl)cc1C(C)C` [DNM0566] displayed an MIC against MRSA (ATCC 33591) of 1 µg/mL (≈ 2.31 µM). Inhibition at AcpS was half-maximal at 13 µM (IC50). In the assay on MRSA (ATCC 33591), `CC(C)(C)c1ccc(-c2cc(-c3nnn[nH]3)sc2-c2ccc(C(C)(C)C)cc2)cc1` [DNM0546] came in with an MIC of 2 µg/mL (≈ 4.8 µM). Also, the IC50 at AcpS is 16 µM.

The MIC is the lowest concentration that inhibits growth of the organism. Low values mean inhibition by little substance, high ones a need for much substance. In general, IC50 refers to the concentration needed to halve the response being measured. Low values mean greater potency, high ones weaker potency.
